Measured values as given in article PMC10331583, “Control of fibrosis with enhanced safety via asymmetric inhibition of prolyl‐tRNA synthetase 1” (EMBO Molecular Medicine, 2023).
Where “and” joins values, the source holds several entries; their conditions need not be identical. Equal values may be shown once. Read-outs that look alike come from different tables or passages of the source.

Legend:
WI‐26 VA4 cells [1] = assay: Puromycin incorporation assay; format: cell-based, human
Description: After being rinsed with cold PBS twice, the cells were collected and resuspended in 200 μl of the carbonate bicarbonate buffer (Sigma Aldrich, C3041‐50CAP) with protease inhibitor. The cell lysates were obtained by sonication and centrifugation at 20,000 g for 15 min at 4°C. After protein quantification using a Pierce™ BCA Protein Assay Kit (Thermo Fisher Scientific, 23225), 400 ng of the proteins was coated to ELISA plates for 18 h at 4°C. […] The plates were rinsed with the washing buffer for three times after each antibody incubation step. […] The amount of puromycin incorporated in proteins was determined by measuring the absorbance at 450 nm (reference wavelength at 620 nm). Experimental values marked in red with strikethrough text in the Figure Source Data file were excluded from the analysis. These values were determined by considering the values of biological and technical replicates under the same condition, as well as the values at the former and later chemical concentrations.

[2] = system: TNT Quick Coupled Transcription/Translation System (luciferase synthesis); format: biochemical
WI‐26 VA4 cells [3] = assay: Collagen ELISA (secreted pro‐collagen I)
[4] = log(inhibitor) vs. response, variable slope (four parameters)
[5] = log(inhibitor) vs. response, variable slope (four parameters), concentration in nM

SMILES: O=C(C[C@H]1NCCC[C@@H]1O)Cn1cnc2ccc(-c3cccc(F)c3)cc21 [DWN11251]
- activity at 10 µM (WI‐26 VA4 cells [1]; Homo sapiens, WI26VA4, 10000 nM, read-out: Puromycin, % of control, single replicate): 20.3%
- activity at 30 µM (WI‐26 VA4 cells [1]; Homo sapiens, WI26VA4, 30000 nM, read-out: Puromycin, % of control, average): 0.74%
- IC50 (WI‐26 VA4 cells [1]; Homo sapiens, WI26VA4, log(inhibitor) vs. response, variable slope (four parameters), read-out: Puromycin, IC50 (best-fit value)): 4.24 µM
- Puromycin, HillSlope (best-fit value) (WI‐26 VA4 cells [1]; [4]): -1.784
- Puromycin, LogIC50 (best-fit value) (WI‐26 VA4 cells [1]; [5]): 3.627
- TNT-luciferase % of control ([2]; 60 nM, Experiment #1, replicates, 0.06 µM): 107.20 % of control and 104.88 % of control and 105.66 % of control
- TNT-luciferase % of control ([2]; 60 nM, Experiment #2, replicates, 0.06 µM): 114.45 % of control and 123.12 % of control and 122.25 % of control
- TNT-luciferase % of control, average ([2]; 60 nM): 112.93 % of control
- TNT-luciferase % of control ([2]; 200 nM, Experiment #1, replicates, 0.2 µM): 108.74 % of control and 107.20 % of control and 111.83 % of control
- TNT-luciferase % of control ([2]; 200 nM, Experiment #2, replicates, 0.2 µM): 104.91 % of control and 109.25 % of control and 124.86 % of control
- TNT-luciferase % of control, average ([2]; 200 nM): 111.13 % of control
- TNT-luciferase % of control ([2]; 600 nM, Experiment #1, replicates, 0.6 µM): 114.14 % of control and 111.05 % of control and 117.22 % of control
- TNT-luciferase % of control ([2]; 600 nM, Experiment #2, replicates, 0.6 µM): 98.84 % of control (2×) and 100.58 % of control
- TNT-luciferase % of control, average ([2]; 600 nM): 106.78 % of control
- TNT-luciferase % of control ([2]; 2000 nM, Experiment #1, replicates, 2 µM): 91.77 % of control (2×) and 97.94 % of control
- TNT-luciferase % of control ([2]; 2000 nM, Experiment #2, replicates, 2 µM): 83.24 % of control and 92.77 % of control and 96.24 % of control
- TNT-luciferase % of control, average ([2]; 2000 nM): 92.29 % of control
- TNT-luciferase % of control ([2]; 6000 nM, Experiment #1, replicates, 6 µM): 60.77 % of control and 59.00 % of control and 60.23 % of control
- TNT-luciferase % of control ([2]; 6000 nM, Experiment #2, replicates, 6 µM): 57.75 % of control and 61.56 % of control and 58.87 % of control
- TNT-luciferase % of control, average ([2]; 6000 nM): 59.70 % of control
- TNT-luciferase % of control ([2]; 20000 nM, Experiment #1, replicates, 20 µM): 9.64 % of control and 9.49 % of control and 10.87 % of control
- TNT-luciferase % of control ([2]; 20000 nM, Experiment #2, replicates, 20 µM): 9.97 % of control and 10.14 % of control and 11.01 % of control
- TNT-luciferase % of control, average ([2]; 20000 nM): 10.19 % of control
- TNT-luciferase % of control ([2]; 60000 nM, Experiment #1, replicates, 60 µM): 0.32 % of control and 0.35 % of control and 0.31 % of control
- TNT-luciferase % of control ([2]; 60000 nM, Experiment #2, replicates, 60 µM): 0.26 % of control and 0.27 % of control and 0.30 % of control
- TNT-luciferase % of control, average ([2]; 60000 nM): 0.30 % of control
- TNT-luciferase % of control ([2]; 200000 nM, Experiment #1, replicates, 200 µM): 0.0123 % of control and 0.00453 % of control and 0.000979 % of control
- TNT-luciferase % of control ([2]; 200000 nM, Experiment #2, replicates, 200 µM): 0.0176 % of control and 0.0228 % of control and 0.0243 % of control
- TNT-luciferase % of control, average ([2]; 200000 nM): 0.0137 % of control
- TNT-luciferase LogIC50 (best-fit value) [2, 5]: 3.802
- IC50 ([2]; log(inhibitor) vs. response, variable slope (four parameters), unit from head concentration (nM), read-out: TNT-luciferase IC50 (best-fit value)): 6340 nM
- Collagen, % of control (single replicates per experiment) (WI‐26 VA4 cells [3]; 10 nM, 0.01 µM): 112.57 % of control and 103.72 % of control and 109.80 % of control and 111.67 % of control and 110.64 % of control
- Collagen, % of control (single replicates per experiment) (WI‐26 VA4 cells [3]; 100 nM, 0.1 µM): 84.02 % of control and 93.58 % of control and 96.09 % of control and 96.94 % of control and 92.86 % of control
- Collagen, % of control (single replicates per experiment) (WI‐26 VA4 cells [3]; 300 nM, 0.3 µM): 47.78 % of control and 47.63 % of control and 53.20 % of control and 53.43 % of control and 55.58 % of control
- Collagen, % of control (single replicates per experiment) (WI‐26 VA4 cells [3]; 1000 nM, 1 µM): 11.57 % of control and 11.31 % of control and 12.08 % of control and 14.51 % of control and 14.77 % of control
- Collagen, % of control (single replicates per experiment) (WI‐26 VA4 cells [3]; 3000 nM, 3 µM): 3.47 % of control and 2.67 % of control and 3.07 % of control and 3.55 % of control and 4.03 % of control
- Collagen, % of control (single replicates per experiment) (WI‐26 VA4 cells [3]; 10000 nM, 10 µM): 2.75 % of control and 2.12 % of control and 2.44 % of control and 2.49 % of control and 2.64 % of control
- Collagen, % of control (single replicates per experiment) (WI‐26 VA4 cells [3]; 30000 nM, 30 µM): 3.52 % of control
- CC50/collagen IC50 (WI‐26 VA4 cells [3]; Fig 5E): 7.08
- IC50 (WI‐26 VA4 cells [3]; Homo sapiens, WI26VA4, read-out: Collagen IC50 (best-fit value), log(inhibitor) vs. response, variable slope (four parameters) (converted)): 0.257 µM
- activity at 0.01 µM (WI‐26 VA4 cells [3]; Homo sapiens, WI26VA4, read-out: Collagen, % of control (single replicates per experiment), 10 nM): 112%
- activity at 0.03 µM (WI‐26 VA4 cells [3]; Homo sapiens, WI26VA4, read-out: Collagen, % of control (single replicates per experiment), 30 nM): 109%
- activity at 0.1 µM (WI‐26 VA4 cells [3]; Homo sapiens, WI26VA4, read-out: Collagen, % of control (single replicates per experiment), 100 nM): 81.3%
- activity at 0.3 µM (WI‐26 VA4 cells [3]; Homo sapiens, WI26VA4, read-out: Collagen, % of control (single replicates per experiment), 300 nM): 42.9%
- activity at 1 µM (WI‐26 VA4 cells [3]; Homo sapiens, WI26VA4, read-out: Collagen, % of control (single replicates per experiment), 1000 nM): 10.2%
- activity at 3 µM (WI‐26 VA4 cells [3]; Homo sapiens, WI26VA4, read-out: Collagen, % of control (single replicates per experiment), 3000 nM): 2.81%
- activity at 10 µM (WI‐26 VA4 cells [3]; Homo sapiens, WI26VA4, read-out: Collagen, % of control (single replicates per experiment), 10000 nM): 2.31%
- activity at 30 µM (WI‐26 VA4 cells [3]; Homo sapiens, WI26VA4, read-out: Collagen, % of control (single replicates per experiment), 30000 nM): 2.54%
- activity at 0.01 µM (WI‐26 VA4 cells [3]; Homo sapiens, WI26VA4, read-out: Collagen, % of control, average, 10 nM, average): 110%
- activity at 0.03 µM (WI‐26 VA4 cells [3]; Homo sapiens, WI26VA4, read-out: Collagen, % of control, average, 30 nM, average): 108%
- activity at 0.1 µM (WI‐26 VA4 cells [3]; Homo sapiens, WI26VA4, read-out: Collagen, % of control, average, 100 nM, average): 90.8%
- activity at 0.3 µM (WI‐26 VA4 cells [3]; Homo sapiens, WI26VA4, read-out: Collagen, % of control, average, 300 nM, average): 50.1%
- activity at 1 µM (WI‐26 VA4 cells [3]; Homo sapiens, WI26VA4, read-out: Collagen, % of control, average, 1000 nM, average): 12.4%
- activity at 3 µM (WI‐26 VA4 cells [3]; Homo sapiens, WI26VA4, read-out: Collagen, % of control, average, 3000 nM, average): 3.27%
- activity at 10 µM (WI‐26 VA4 cells [3]; Homo sapiens, WI26VA4, read-out: Collagen, % of control, average, 10000 nM, average): 2.46%
- activity at 30 µM (WI‐26 VA4 cells [3]; Homo sapiens, WI26VA4, read-out: Collagen, % of control, average, 30000 nM, average): 2.88%
- Collagen HillSlope (best-fit value) (WI‐26 VA4 cells [3]; [4]): -1.623
- Collagen LogIC50 (best-fit value) (WI‐26 VA4 cells [3]; [5]): 2.409
- Relative (CC50)/(collagen IC50) (WI‐26 VA4 cells [3]; relative to HF, Fig 5E): 2.11
